According to ChEMBL document CHEMBL1201862, “PubChem BioAssay data set” (2004):
Active and inactive are the calls of the source.

Assays:
[1] = molecular target: T1, Mannose-6-phosphate isomerase (Homo sapiens, UniProt P34949); assay: phosphomannose isomerase inhibition – biochemical, fluorescence intensity, confirmation (AID 1535)
T1 sequence (P34949 whole entry): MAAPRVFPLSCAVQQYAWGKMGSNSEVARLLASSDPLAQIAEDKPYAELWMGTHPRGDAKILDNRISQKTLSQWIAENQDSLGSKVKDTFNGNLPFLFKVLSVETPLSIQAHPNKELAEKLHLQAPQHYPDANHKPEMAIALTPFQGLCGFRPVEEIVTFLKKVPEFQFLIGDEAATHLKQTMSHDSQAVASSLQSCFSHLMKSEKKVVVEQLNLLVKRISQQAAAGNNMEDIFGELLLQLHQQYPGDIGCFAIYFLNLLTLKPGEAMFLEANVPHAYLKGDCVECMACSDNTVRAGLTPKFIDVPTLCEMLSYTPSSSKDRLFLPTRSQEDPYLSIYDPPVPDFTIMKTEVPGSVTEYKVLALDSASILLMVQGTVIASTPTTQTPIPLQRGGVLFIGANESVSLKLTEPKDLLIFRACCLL

Phosphomannomutase 2 = Phosphomannomutase 2 (Homo sapiens, UniProt O15305); assay: Counter screen SAR assay for PMM2 inhibitors via a fluorescence intensity assay. [Related pubchem assays (depositor defined):AID1545, AID1574]
[2] = molecular target: T2, Delta-type opioid receptor (Homo sapiens, UniProt P41143); assay: HTS Image-Based Screen for Antagonists of the DOR Receptor. [Related pubchem assays (depositor defined):AID1777, AID1785, AID1786, AID2133]; format: functional
Mu-type opioid receptor = Mu-type opioid receptor (Homo sapiens, UniProt P35372); assay: HTS Image-Based Screen for Agonists of the MOR Receptor. [Related pubchem assays (depositor defined):AID1777, AID1785, AID1786, AID2133]; format: functional;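 also: imaging of beta-arrestin GFP recruitment into spots after receptor activation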
[3] = molecular target: T2, Delta-type opioid receptor; assay: HTS Image-Based Screen for Agonists of the DOR Receptor. [Related pubchem assays (depositor defined):AID1777, AID1786, AID2133]; format: functional
[4] = molecular target: T3, Kappa-type opioid receptor (Homo sapiens, UniProt P41145); format: functional
Beta-galactosidase = Beta-galactosidase (Escherichia coli, UniProt Q8VNN2); format: functional
[5] = molecular target: T3, Kappa-type opioid receptor; format: functional; remark: listed apart in the source
[6] = molecular target: T4, Short transient receptor potential channel 4 (Mus musculus, UniProt Q9QUQ5); assay: block of DAMGO-driven TRPC4 calcium entry – cell-based, HEK293 TRPC4/mu-opioid, Fluo-4 calcium, dose response (AID 434942); format: functional;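 also: potency of inhibitors blocking the TRPC4 calcium response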
T4 sequence (Q9QUQ5 whole entry): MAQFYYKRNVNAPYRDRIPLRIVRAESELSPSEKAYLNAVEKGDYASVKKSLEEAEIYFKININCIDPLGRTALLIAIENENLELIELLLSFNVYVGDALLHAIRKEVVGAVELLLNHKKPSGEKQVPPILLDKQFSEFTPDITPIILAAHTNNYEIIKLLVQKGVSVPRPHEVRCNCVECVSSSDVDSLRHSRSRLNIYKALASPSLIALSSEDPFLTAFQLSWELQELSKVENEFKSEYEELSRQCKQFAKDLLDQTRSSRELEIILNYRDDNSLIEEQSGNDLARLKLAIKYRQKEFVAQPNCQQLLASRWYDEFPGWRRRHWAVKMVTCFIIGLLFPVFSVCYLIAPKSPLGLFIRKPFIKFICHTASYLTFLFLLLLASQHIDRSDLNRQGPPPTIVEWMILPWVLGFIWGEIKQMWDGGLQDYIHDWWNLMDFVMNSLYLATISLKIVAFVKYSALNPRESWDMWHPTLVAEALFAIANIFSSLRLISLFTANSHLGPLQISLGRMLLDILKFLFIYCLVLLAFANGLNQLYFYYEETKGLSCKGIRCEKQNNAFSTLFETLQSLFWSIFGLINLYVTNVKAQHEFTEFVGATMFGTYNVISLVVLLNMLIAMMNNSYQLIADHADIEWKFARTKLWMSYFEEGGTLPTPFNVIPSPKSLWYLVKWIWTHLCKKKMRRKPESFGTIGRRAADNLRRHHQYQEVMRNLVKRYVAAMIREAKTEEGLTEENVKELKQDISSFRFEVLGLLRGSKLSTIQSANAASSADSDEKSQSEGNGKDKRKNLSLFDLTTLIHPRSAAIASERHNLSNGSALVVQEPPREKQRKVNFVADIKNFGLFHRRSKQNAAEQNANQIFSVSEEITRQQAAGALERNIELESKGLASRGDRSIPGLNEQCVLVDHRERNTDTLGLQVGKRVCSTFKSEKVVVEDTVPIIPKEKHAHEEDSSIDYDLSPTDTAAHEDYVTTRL

Protein skinhead-1 = molecular target: T5, Protein skinhead-1 (Caenorhabditis elegans, UniProt P34707); format: functional
T5 sequence (P34707 whole entry): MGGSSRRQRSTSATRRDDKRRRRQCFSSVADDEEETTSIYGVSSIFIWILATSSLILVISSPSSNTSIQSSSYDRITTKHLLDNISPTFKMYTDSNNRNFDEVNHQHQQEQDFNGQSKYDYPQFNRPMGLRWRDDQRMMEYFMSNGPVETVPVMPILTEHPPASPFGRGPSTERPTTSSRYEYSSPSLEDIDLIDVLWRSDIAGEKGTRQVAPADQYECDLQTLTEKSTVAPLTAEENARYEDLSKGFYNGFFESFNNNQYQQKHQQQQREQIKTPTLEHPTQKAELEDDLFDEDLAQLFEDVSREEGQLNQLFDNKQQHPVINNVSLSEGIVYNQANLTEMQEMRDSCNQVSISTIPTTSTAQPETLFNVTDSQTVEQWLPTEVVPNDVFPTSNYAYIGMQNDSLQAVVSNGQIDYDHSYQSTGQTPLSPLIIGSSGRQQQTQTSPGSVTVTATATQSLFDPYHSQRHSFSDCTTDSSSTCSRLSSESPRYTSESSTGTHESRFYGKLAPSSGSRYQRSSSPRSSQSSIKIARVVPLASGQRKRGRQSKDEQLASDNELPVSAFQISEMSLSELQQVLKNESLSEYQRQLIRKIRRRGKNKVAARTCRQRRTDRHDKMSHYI

[7] = NIH-3T3 fibroblast cytotoxicity, dose response, cytotoxicity control, cell-based, fluorescence, Alamar Blue, secondary assay (AID 2327); format: functional;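 also: NIH-3T3 mouse fibroblasts cultured with fluconazole at 8 µg/mL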
[8] = Luminescence Cell-Based Dose Confirmation HTS to Identify Activators of 5'UTR Stem-Loop Driven Alpha-Synuclein mRNA Translation in H4 Neuroglioblastoma Cells. [Related pubchem assays: 1829 (Project Summary), 1814 (Primary HTS)]; format: functional
[9] = Luminescence Cell-Based Dose Response HTS to Identify Activators of Luciferase Translation or Activity in H4 […] Cells. [Related pubchem assays: 1829 (Project Summary), 1814 (Primary HTS)]; format: functional
[10] = test system: Streptococcus sp. 'group A'; assay: Streptococcus pyogenes SK(-)GAS viability under kanamycin – luminescence, BacTiterGlo, confirmation, counter-screen for streptokinase expression inhibitor project, dose response (AID 1900); format: functional, organism-based
[11] = molecular target: T6, Tyrosine-protein phosphatase non-receptor type 7 (Homo sapiens, UniProt P35236); format: functional
T6 sequence (P35236 whole entry): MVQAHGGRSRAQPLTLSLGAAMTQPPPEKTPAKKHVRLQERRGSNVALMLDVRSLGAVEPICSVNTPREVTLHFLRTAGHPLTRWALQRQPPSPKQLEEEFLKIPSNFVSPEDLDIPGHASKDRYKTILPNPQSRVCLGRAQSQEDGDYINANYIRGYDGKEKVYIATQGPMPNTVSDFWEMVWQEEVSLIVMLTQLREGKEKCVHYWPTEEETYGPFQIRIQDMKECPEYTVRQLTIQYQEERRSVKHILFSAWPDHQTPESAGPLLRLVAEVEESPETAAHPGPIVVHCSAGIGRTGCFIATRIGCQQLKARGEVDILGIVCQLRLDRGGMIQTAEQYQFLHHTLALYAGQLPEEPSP

H4 = assay: Luminescence Cell-Based Dose Response HTS to Identify Activators of 5'UTR Stem-Loop Driven Prion Protein mRNA Translation in H4 Neuroglioblastoma Cells. [Related pubchem assays: 1829 (Project Summary), 1814 (Primary HTS)]; format: functional; details: Homo sapiens
Streptokinase A = molecular target: T7, Streptokinase A (Streptococcus pyogenes serotype M1, UniProt P10520); assay: viability-normalized secreted streptokinase activity reduction – plasminogen activation absorbance, OD405, dose response (AID 1914); format: functional, Streptococcus pyogenes M1 GAS;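 also: secreted streptokinase activity via plasminogen activation per viability signal from cell pellet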
T7 sequence (P10520 whole entry): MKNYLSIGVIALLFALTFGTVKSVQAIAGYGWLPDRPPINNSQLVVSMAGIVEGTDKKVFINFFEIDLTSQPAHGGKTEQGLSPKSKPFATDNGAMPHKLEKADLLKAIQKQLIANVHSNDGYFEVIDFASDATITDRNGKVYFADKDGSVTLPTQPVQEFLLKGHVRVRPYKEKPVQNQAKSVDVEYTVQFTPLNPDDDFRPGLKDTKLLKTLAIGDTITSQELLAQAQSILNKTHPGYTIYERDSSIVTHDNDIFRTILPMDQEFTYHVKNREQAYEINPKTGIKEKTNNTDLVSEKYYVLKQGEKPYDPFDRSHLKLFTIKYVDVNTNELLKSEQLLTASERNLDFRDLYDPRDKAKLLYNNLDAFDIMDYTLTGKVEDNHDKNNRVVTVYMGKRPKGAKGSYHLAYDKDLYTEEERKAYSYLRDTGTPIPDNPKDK

[12] = fluconazole-exposed Candida albicans growth modulators – fluorescence, retest, confirmation (AID 2467); format: functional, cell-based
[13] = molecular target: T8, Calpain-2 catalytic subunit (Sus scrofa, UniProt P43367); assay: m-calpain protease blockers, concentration series – biochemical, fluorogenic peptide substrate, dose response (AID 1420); format: functional
T8 sequence (P43367 whole entry): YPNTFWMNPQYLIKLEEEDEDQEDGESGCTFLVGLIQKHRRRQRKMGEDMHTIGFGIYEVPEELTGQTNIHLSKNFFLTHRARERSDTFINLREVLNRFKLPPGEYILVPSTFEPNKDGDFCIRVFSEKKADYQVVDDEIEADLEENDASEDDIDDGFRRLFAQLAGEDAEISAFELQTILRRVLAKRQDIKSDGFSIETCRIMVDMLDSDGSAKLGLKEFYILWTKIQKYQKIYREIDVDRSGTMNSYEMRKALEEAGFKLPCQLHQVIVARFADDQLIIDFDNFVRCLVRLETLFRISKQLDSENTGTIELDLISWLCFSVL

[14] = molecular target: T9, Dual specificity protein phosphatase 6 (Rattus norvegicus, UniProt Q64346); assay: inhibition of rat DUSP6 enzyme activity – biochemical, in vitro, primary screen (AID 425)
T9 sequence (Q64346 whole entry): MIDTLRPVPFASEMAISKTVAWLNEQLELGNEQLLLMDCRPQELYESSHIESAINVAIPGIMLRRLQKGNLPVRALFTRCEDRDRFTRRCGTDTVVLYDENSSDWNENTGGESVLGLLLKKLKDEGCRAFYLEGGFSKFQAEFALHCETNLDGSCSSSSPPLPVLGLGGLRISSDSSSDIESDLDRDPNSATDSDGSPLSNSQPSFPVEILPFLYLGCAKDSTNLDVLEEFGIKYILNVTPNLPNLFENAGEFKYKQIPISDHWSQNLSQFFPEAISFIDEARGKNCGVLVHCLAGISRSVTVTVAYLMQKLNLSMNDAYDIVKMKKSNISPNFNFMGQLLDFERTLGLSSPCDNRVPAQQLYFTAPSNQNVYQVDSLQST

Streptococcus = assay: GAS UMAA2166 growth inhibition – luminescence, BacTiterGlo, counter-screen for streptokinase expression inhibitor project, dose response (AID 1915); format: functional, organism-based;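 also: potency for reduction of bacterial viability or growth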
[15] = molecular target: Mitogen-activated protein kinase 10 (Homo sapiens, UniProt P53779); assay: Dose response biochemical screening assay for inhibitors of c-Jun N-Terminal Kinase 3 (JNK3). [Related pubchem assays: 746 ]
[16] = molecular target: T10, Tyrosine-protein phosphatase non-receptor type 22 (Homo sapiens, UniProt Q9Y2R2); format: functional
T10 sequence (Q9Y2R2 whole entry): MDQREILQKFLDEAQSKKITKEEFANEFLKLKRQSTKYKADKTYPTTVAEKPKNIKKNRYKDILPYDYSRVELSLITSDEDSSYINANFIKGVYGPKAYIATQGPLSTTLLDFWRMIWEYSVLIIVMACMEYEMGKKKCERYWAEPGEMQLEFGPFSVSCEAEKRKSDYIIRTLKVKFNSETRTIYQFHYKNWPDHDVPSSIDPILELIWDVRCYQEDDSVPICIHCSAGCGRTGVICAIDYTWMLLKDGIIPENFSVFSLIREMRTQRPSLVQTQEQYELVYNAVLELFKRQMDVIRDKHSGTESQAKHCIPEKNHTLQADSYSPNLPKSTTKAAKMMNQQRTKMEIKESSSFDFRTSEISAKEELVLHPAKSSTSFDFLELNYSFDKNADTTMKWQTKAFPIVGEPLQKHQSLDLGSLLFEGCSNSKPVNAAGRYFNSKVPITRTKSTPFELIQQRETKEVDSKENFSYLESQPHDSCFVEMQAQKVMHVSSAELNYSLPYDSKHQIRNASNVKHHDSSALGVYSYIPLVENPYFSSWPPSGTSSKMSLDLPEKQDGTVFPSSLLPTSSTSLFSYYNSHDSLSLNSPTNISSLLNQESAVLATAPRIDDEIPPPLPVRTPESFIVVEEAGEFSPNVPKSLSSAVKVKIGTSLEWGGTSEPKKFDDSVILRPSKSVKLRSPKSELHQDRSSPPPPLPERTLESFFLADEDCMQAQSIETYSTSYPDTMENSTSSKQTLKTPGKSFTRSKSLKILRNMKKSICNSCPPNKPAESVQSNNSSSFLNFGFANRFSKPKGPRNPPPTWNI

[17] = molecular target: T10, Tyrosine-protein phosphatase non-receptor type 22; format: functional; remark: listed apart in the source

T2 sequence (P41143 whole entry): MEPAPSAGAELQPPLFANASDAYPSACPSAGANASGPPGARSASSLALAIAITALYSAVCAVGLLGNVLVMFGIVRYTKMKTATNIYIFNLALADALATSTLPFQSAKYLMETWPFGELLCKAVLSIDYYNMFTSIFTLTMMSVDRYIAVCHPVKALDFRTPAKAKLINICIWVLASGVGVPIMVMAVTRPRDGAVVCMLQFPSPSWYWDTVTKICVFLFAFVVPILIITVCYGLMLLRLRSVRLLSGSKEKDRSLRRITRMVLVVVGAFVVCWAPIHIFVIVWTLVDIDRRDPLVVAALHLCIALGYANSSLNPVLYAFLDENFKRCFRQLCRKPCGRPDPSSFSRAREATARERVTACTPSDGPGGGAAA
Phosphomannomutase 2, sequence (O15305 whole entry): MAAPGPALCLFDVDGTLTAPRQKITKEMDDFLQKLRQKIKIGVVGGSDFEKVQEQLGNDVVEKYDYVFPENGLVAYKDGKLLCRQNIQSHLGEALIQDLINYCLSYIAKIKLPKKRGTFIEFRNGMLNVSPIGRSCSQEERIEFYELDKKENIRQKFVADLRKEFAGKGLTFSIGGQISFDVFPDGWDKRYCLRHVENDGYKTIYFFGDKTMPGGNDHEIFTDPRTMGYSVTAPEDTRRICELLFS
T3 sequence (P41145 whole entry): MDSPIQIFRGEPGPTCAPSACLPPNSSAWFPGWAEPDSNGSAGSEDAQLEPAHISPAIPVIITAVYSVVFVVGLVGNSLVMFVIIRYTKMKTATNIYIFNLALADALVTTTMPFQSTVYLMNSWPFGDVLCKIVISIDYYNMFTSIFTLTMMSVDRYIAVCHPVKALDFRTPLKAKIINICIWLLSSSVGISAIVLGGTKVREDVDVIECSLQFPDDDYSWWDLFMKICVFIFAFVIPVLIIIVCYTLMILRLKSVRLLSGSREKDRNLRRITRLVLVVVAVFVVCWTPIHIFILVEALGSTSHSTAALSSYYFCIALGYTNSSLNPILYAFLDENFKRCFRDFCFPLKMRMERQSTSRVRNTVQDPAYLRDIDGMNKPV
Mu-type opioid receptor, sequence (P35372 whole entry): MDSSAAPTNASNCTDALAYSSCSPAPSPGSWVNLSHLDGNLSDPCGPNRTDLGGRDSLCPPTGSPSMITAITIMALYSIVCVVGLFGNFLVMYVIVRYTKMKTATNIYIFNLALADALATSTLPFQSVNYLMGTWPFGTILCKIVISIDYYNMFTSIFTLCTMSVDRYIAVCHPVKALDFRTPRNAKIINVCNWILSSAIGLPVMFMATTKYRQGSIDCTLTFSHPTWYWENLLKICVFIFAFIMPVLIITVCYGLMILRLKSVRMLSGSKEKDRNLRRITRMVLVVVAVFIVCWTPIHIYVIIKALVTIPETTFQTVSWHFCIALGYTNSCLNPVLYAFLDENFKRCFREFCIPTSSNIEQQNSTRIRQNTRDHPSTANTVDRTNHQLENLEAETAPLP
Mitogen-activated protein kinase 10, sequence (P53779 whole entry): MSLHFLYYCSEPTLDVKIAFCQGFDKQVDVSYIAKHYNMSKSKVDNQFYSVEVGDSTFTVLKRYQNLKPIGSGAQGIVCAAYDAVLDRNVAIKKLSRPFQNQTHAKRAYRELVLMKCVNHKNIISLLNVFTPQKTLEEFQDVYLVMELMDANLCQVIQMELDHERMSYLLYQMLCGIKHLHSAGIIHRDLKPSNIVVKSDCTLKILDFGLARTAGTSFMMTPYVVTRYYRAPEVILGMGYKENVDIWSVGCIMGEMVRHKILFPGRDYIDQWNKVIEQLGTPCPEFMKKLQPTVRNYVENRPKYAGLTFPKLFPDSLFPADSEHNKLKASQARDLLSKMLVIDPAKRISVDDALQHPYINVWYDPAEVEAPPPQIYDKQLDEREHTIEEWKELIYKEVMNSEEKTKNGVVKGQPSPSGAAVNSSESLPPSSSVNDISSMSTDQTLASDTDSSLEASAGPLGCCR
Beta-galactosidase, sequence (Q8VNN2 whole entry): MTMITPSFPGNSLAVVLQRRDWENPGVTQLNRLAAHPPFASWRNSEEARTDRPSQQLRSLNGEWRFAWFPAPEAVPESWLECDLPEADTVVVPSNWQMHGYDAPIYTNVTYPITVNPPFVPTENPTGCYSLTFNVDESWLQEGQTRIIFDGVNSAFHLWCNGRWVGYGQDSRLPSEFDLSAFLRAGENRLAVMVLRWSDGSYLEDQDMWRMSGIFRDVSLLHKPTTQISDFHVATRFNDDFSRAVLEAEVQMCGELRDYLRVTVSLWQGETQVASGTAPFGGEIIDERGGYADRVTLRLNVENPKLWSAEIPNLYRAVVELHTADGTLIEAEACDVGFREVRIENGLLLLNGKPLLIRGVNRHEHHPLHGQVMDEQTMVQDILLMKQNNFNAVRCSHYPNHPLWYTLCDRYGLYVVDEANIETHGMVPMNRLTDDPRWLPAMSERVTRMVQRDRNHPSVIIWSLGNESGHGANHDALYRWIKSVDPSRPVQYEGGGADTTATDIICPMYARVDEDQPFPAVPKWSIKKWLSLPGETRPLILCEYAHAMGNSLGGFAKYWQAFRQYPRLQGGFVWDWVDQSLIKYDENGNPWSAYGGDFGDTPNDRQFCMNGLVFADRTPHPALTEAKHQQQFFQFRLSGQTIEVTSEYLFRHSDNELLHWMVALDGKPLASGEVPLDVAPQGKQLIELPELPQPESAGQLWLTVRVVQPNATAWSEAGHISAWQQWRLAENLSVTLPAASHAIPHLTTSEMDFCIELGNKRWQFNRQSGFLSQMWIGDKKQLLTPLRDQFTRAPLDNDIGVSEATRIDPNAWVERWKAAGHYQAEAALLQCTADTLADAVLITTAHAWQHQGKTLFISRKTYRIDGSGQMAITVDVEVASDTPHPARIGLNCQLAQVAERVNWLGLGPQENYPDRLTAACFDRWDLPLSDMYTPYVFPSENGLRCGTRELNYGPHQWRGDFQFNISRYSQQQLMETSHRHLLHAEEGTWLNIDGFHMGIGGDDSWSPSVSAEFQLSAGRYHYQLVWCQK

Clc1ccc(Nc2ccccc2/N=c2\ssnc2Cl)cc1
IC50 [1]: 9.77 µM (active)
IC50 (Phosphomannomutase 2): > 100 µM (inactive)

CCOc1cc(CNC2CCCC2)cc(Cl)c1OCc1ccccc1
IC50 [2]: > 32 µM (inactive)
EC50 (Mu-type opioid receptor): > 32 µM (inactive)
EC50 [3]: > 32 µM (inactive)
IC50 [4]: 7.88 µM (active)
EC50 (Beta-galactosidase): > 31.5 µM (inactive)
IC50 [5]: 2.57 µM
EC50 [6]: 4.22 µM (active)
IC50 (Protein skinhead-1): < 3.13 µM (active)

Fc1ccc(/N=c2\ssnc2Cl)cc1
IC50 [1]: 11.6 µM (active)
IC50 (Phosphomannomutase 2): > 100 µM (inactive)

CCn1nc(-c2ccccc2)nc2c(=O)n(C)c(=O)nc1-2
EC50 [7]: 1.8 µM (inconclusive)
EC50 [8]: > 120 µM (not active)
EC50 [9]: > 30 µM (not active)
EC50 [10]: 2.54 µM (active)
IC50 [11]: 8.91 µM (active)
EC50 (H4): > 120 µM (not active)
EC50 (Streptokinase A): > 150 µM (not active)
EC50 [12]: 0.442 µM (active)
IC50 [13]: 6.11 µM (not active)
IC50 [14]: 0.239 µM (active)
EC50 (Streptococcus): 9.43 µM (active)
IC50 [15]: 36.3 µM (not active)
IC50 [16]: 13.2 µM (active)
IC50 [17]: 10.4 µM (active)
